Measurements published in paper PMC4774972, “Activity and Predicted Nephrotoxicity of Synthetic Antibiotics Based on Polymyxin B” (Journal of Medicinal Chemistry, 2016).
In brackets after ≈: the same amount, converted by molar mass. Bridge positions count the residues as written; N and C are the ends. Square brackets hold non-standard residues; d marks the D form. Peptide text beside a SMILES is read from it. * marks the point of attachment. ξ: configuration not given here. ξGly(octyl) = CCCCCCCCC(N)C(=O)O; dDab = NCC[C@@H](N)C(=O)O; Octanoyl = CCCCCCCC(=O)*; Dab = NCC[C@H](N)C(=O)O

Key:
[1] = system: A. baumannii ATCC 19606; assay type: cell-based, Acinetobacter baumannii; conditions: ATCC 19606, 18 h
Procedure: (§1) Bacteria were either obtained from American Type Culture Collection (ATCC; Manassas, VA, USA) or independent academic clinical isolate collections, as listed in Table S2. Bacteria were cultured in nutrient broth (NB; Bacto Laboratories, catalog no. 234000) or Muller Hinton broth (MHB; Bacto Laboratories, catalog no. 211443) at 37 °C overnight with shaking (∼180 rpm). A sample of each culture was then diluted 50-fold in fresh MHB and incubated at 37 °C for 1.5–3 h with shaking (∼180 rpm). Compound stock solutions were prepared as 0.64 or 2.56 mg/mL in water. The compounds, at twice the final desired concentration, were serially diluted 2-fold across the wells of 96-well plates (Polystyrene, Corning, catalogue No. 3370). Mid log phase bacterial cultures (after 1.5–3 h incubation) were diluted to a final concentration of 5 × 10^5 colony forming units (CFU)/mL, and 50 μL was added to each well giving a final compound concentration range of 32 μg/mL to 0.015 μg/mL (128–0.06 μg/mL for colistin and polymyxin B against the polymyxin resistant clinical isolates). MICs were determined visually after 18 h of incubation at 37 °C, with the MIC defined as the lowest compound concentration at which no bacterial growth was visible.
(§2) Table S2. Bacterial strains used for Minimum Inhibitory Concentration (MIC) […]
(§3) Organism Strain Strain description Strain Source
(§4) Escherichia coli ATCC 25922 FDA strain Seattle 1946 ATCC
(§5) Klebsiella pneumoniae ATCC 13883 Control strain ATCC
(§6) Klebsiella pneumoniae ATCC 700603 Multi-drug resistant ATCC
(§7) Klebsiella pneumoniae BAA-2146 Metallo-beta-lactamase- ATCC
(§8) Acinetobacter baumannii ATCC 19606 Type strain ATCC
(§9) Pseudomonas aeruginosa ATCC 27853 Type strain ATCC
(§10) Pseudomonas aeruginosa FADDI-PA070 Clinical isolate, Nation and Li labs, polymyxin resistant Monash University
(§11) Clinical isolate, Wang Hengzhuang, Pseudomonas aeruginosa PA9704 polymyxin resistant University Hospital of […]
(§12) Ptyela Clinical isolate, Ilias Karaiskos and Acinetobacter baumannii Carbapenem & Helen Giamarellou
(§13) Clinical isolate, Medicine, Hygeia
(§14) Klebsiella pneumoniae Koprana Carbapenem, & General Hospital, […]
(§15) Clinical isolate, (Instituto Dante […]
(§16) polymyxin resistant Cardiologia, São […]

[2] = system: K. pneumoniae ATCC 13883; conditions: MIC K. pneumoniae ATCC 13883 (µg/mL)
[3] = system: K. pneumoniae CI Koprana 100650661:1, PmxR; conditions: MIC K. pneumoniae CI Koprana 100650661:1, PmxR (µg/mL)
[4] = system: S. aureus ATCC 25923, MSSA; conditions: MIC S. aureus ATCC 25923, MSSA (µg/mL)
[5] = system: P. aeruginosa PA9704, PmxR; conditions: MIC P. aeruginosa PA9704, PmxR (µg/mL)
[6] = system: K. pneumoniae CI 138-16357-20362, PmxR; conditions: MIC K. pneumoniae CI 138-16357-20362, PmxR (µg/mL)
[7] = system: P. aeruginosa ATCC 27853; conditions: MIC P. aeruginosa ATCC 27853 (µg/mL)
[8] = system: K. pneumoniae ATTC BAA-2146, NDM-1 pos; conditions: MIC K. pneumoniae ATTC BAA-2146, NDM-1 pos (µg/mL)
[9] = system: K. pneumoniae ATCC 700603, MDR; conditions: MIC K. pneumoniae ATCC 700603, MDR(µg/mL)
[10] = system: E. coli ATCC 25922; conditions: MIC E. coli ATCC 25922 (µg/mL)
[11] = system: A. baumannii CI Ptyela 100734512:2, PmxR; conditions: MIC A. baumannii CI Ptyela 100734512:2, PmxR (µg/mL)
[12] = system: P. aeruginosa FADDI-PA070, PmxR; conditions: MIC P. aeruginosa FADDI-PA070, PmxR (µg/mL)
[13] = system: A. baumannii ATCC 19606; conditions: MIC A. baumannii ATCC 19606 (µg/mL)
[14] = system: E. coli ATCC 25922; assay: microbe, parasite or virus in culture; assay type: cell-based, Escherichia coli; conditions: ATCC 25922, 18 h
Procedure: as §1, §2, §3, §4, §5, §6, §7, §8, §9, §10, §11, §12, §13, §14, §15, §16

[15] = system: K. pneumoniae ATCC 13883; assay: microbe, parasite or virus in culture; assay type: cell-based, Klebsiella pneumoniae; conditions: ATCC 13883, 18 h
[16] = system: K. pneumoniae CI Koprana 100650661:1, PmxR; assay: microbe, parasite or virus in culture; assay type: cell-based, Klebsiella pneumoniae; conditions: carbapenem & polymyxin resistant clinical isolate; MHB, 5 × 10^5 CFU/mL, 18 h at 37 °C
[17] = system: K. pneumoniae CI 138-16357-20362, PmxR; assay: microbe, parasite or virus in culture; assay type: cell-based, Klebsiella pneumoniae; conditions: carbapenem & polymyxin resistant clinical isolate; MHB, 5 × 10^5 CFU/mL, 18 h at 37 °C
[18] = system: S. aureus ATCC 25923, MSSA; assay: microbe, parasite or virus in culture; assay type: cell-based, Staphylococcus aureus; conditions: ATCC 25923, 18 h
Procedure: as §1, §2, §3, §4, §5, §6, §7, §8, §9, §10, §11, §12, §13, §14, §15, §16

[19] = system: P. aeruginosa PA9704, PmxR; assay type: cell-based, Pseudomonas aeruginosa; conditions: polymyxin resistant clinical isolate; MHB, 5 × 10^5 CFU/mL, 18 h at 37 °C
Procedure: as §1, §2, §3, §4, §5, §6, §7, §8, §9, §10, §11, §12, §13, §14, §15, §16

[20] = system: P. aeruginosa FADDI-PA070, PmxR; assay type: cell-based, Pseudomonas aeruginosa; conditions: polymyxin resistant clinical isolate; MHB, 5 × 10^5 CFU/mL, 18 h at 37 °C
Procedure: as §1, §2, §3, §4, §5, §6, §7, §8, §9, §10, §11, §12, §13, §14, §15, §16

[21] = system: P. aeruginosa ATCC 27853; assay: microbe, parasite or virus in culture; assay type: cell-based, Pseudomonas aeruginosa; conditions: ATCC 27853, 18 h
Procedure: as §1, §2, §3, §4, §5, §6, §7, §8, §9, §10, §11, §12, §13, §14, §15, §16

[22] = system: HepG2 cells; assay: Cytotoxicity assay (resazurin assay); assay type: cell-based, human; conditions: 4000 cells/well, 24 h incubation with compound, fluorescence 560/590
Procedure: Cytotoxicity to HEK293 and HepG2 cells was determined using the resazurin assay.[67],[68] […] Compounds were then added into each well. After 24 h incubation, 5 μM resazurin was added per well and incubated at 37 °C for 2 h. Fluorescence intensity was then read using a Polarstar Omega with excitation/emission 560/590. The data were then analyzed using GraphPad Prism 6 software. CC50 values were determined using GraphPad Prism 6 software (Inc. La Jolla, CA).

[23] = system: HepG2; conditions: CC50 HepG2 (µM)
[24] = system: A. baumannii CI Ptyela 100734512:2, PmxR; assay: microbe, parasite or virus in culture; assay type: cell-based, Acinetobacter baumannii; conditions: carbapenem & polymyxin resistant clinical isolate; MHB, 5 × 10^5 CFU/mL, 18 h at 37 °C
Procedure: as §1, §2, §3, §4, §5, §6, §7, §8, §9, §10, §11, §12, §13, §14, §15, §16

[25] = system: panel of predominantly G-ve bacteria

Compound	MIC A. baumannii ATCC 19606 [1]	MIC [2]	MIC [3]	MIC [4]	MIC [5]	MIC [6]	MIC [10]	MIC [11]	MIC [12]	MIC [13]	MIC E. coli ATCC 25922 [14]	MIC K. pneumoniae ATCC 13883 [15]	MIC K. pneumoniae CI Koprana 100650661:1, PmxR [16]	MIC K. pneumoniae CI 138-16357-20362, PmxR [17]	MIC S. aureus ATCC 25923, MSSA [18]	MIC P. aeruginosa PA9704, PmxR [19]	MIC P. aeruginosa FADDI-PA070, PmxR [20]	HepG2 - CC50 [22]	CC50 [23]	MIC A. baumannii CI Ptyela 100734512:2, PmxR [24]	also measured
CCCCCCCCC1NC(=O)[C@@H](Cc2ccccc2)NC(=O)[C@H](CCN)NC(=O)[C@@H](NC(=O)[C@H](CCN)NC(=O)[C@@H](NC(=O)[C@H](CCN)NC(=O)CCCCCCC)[C@@H](C)O)CCNC(=O)[C@H]([C@@H](C)O)NC(=O)[C@H](CCN)NC(=O)[C@H](CCN)NC1=O (stereo partly shown) [Compound 28] (Octanoyl-[Dab]T[Dab][Dab][Dab][dF][ξGly(octyl)][Dab][Dab]T; lactam 4-C)	1(1) μg/mL																				
CCCCCCCC(=O)N[C@H](C(=O)NCC(=O)N[C@H]1CCNC(=O)[C@H]([C@@H](C)O)NC(=O)[C@H](CCN)NC(=O)[C@H](CCN)NC(=O)[C@H](CC(C)C)NC(=O)[C@@H](Cc2ccccc2)NC(=O)[C@H](CCN)NC1=O)[C@@H](C)O [Compound 39] (Octanoyl-TG[Dab][Dab][dF]L[Dab][Dab]T; lactam 3-C)	>32 µg/mL	> 32 µg/mL	> 32 µg/mL	> 32 µg/mL	> 32 µg/mL	> 32 µg/mL	4 µg/mL (≈ 3.82 µM)	> 32 µg/mL	> 32 µg/mL	> 32 µg/mL	4 µg/mL (≈ 3.82 µM)	>32 µg/mL	>32 µg/mL	>32 µg/mL	>32 µg/mL	>32 µg/mL	>32 µg/mL	>300 µM	> 300 µM	>32 µg/mL	MIC [7]: 16 µg/mL (≈ 15.3 µM); MIC [8]: > 32 µg/mL; MIC [9]: > 32 µg/mL; MIC P. aeruginosa ATCC 27853 [21]: 16 µg/mL (≈ 15.3 µM)
CCCCCCCC(=O)N[C@@H](CCN)C(=O)N[C@H](C(=O)N[C@@H](CCN)C(=O)N[C@H]1CCNC(=O)[C@H]([C@@H](C)O)NC(=O)[C@H](CCN)NC(=O)[C@H](CCNC(=O)[C@@H](N)CCC(=O)O)NC(=O)[C@H](CC(C)C)NC(=O)[C@@H](Cc2ccccc2)NC(=O)[C@H](CCN)NC1=O)[C@@H](C)O [Compound 23] (Octanoyl-[Dab]T[Dab][Dab][Dab][dF]L[Dab](Glu)[Dab]T; lactam 4-C)			> 32 µg/mL	> 32 µg/mL	> 32 µg/mL	> 32 µg/mL		> 32 µg/mL	> 32 µg/mL				>32 µg/mL	>32 µg/mL					> 300 µM		MIC for most strains [25]: 1 to 8 µg/mL
CCCCCCCC(=O)N[C@H](CCN)C(=O)N[C@H](C(=O)NCC(=O)N[C@H]1CCNC(=O)[C@H]([C@@H](C)O)NC(=O)[C@H](CCN)NC(=O)[C@H](CCN)NC(=O)[C@H](CC(C)C)NC(=O)[C@@H](Cc2ccccc2)NC(=O)[C@H](CCN)NC1=O)[C@@H](C)O [Compound 40] (Octanoyl-[dDab]TG[Dab][Dab][dF]L[Dab][Dab]T; lactam 4-C)	>64 µg/mL	> 32 µg/mL	> 32 µg/mL	> 64 µg/mL	> 32 µg/mL	> 32 µg/mL	> 32 µg/mL	> 32 µg/mL	> 32 µg/mL	> 64 µg/mL	>32 µg/mL	>32 µg/mL	>32 µg/mL	>32 µg/mL	>64 µg/mL	>32 µg/mL	>32 µg/mL	>300 µM	> 300 µM	>32 µg/mL	
